We go through 19 substances from patent US11110114B2, “Dinucleotides” (OXFORD UNIVERSITY INNOVATION LIMITED, priority 2017, dated 2021).

Like-named read-outs stand apart in the source and are kept apart here. In the oligonucleotide strings, read from the 5' end, every base follows the letter of its sugar. An asterisk marks phosphorothioate; unmarked linkages are phosphodiester. Other units and linkages are bracketed, terminal groups are in braces. A string of capitals states the bases alone. [tz] = triazole internucleoside linkage; l = locked nucleic acid (LNA); [5mC] = 5-methylcytosine; d = 2'-deoxy (DNA)

Holding throughout (assay type): binding
Series [1] deals with RNA Target 3′-rGAG UGM UAG ACG A. Briefly: Mismatch discrimination by UV melting (Table 3). On the procedure:
(§1) UV DNA melting curves were recorded in a Cary 4000 Scan UV-Visible Spectrophotometer using 3 μM of each oligonucleotide in a 10 mM phosphate buffer containing 200 mM NaCl at pH 7.0. Samples were annealed by heating to 85° C. (10° C./min) and then slowly cooling to 20° C. (1° C./min). As these six successive cycles (heating and cooling) were performed at a gradient of 1° C./min, the change in UV absorbance at 260 nm was recorded. The melting temperature was calculated from the 1st derivative of the melting curve using in built software.

The test system of series [2] is DNA target 5′-dGCT GCA GGC GTC G (SEQ ID NO: 35). The note with it: for Tm DNA target: pH 7.
In series [3] the test system is RNA target 5′-rGCU GCA GGC GUC G (SEQ ID NO: 36). The note with it: for Tm RNA target: pH 7.
The test system of series [4] is DNA target: 5′-dGCT GGA GAG GTC G (SEQ ID NO: 39).
In series [5] the test system is RNA Target 3′-rGCUGCGMACGUCG
Briefly: Mismatch discrimination by UV melting, single triazole linkage MeC-T step (Table 6).

The test system of series [6] is DNA target: 5′-dGCT GCA AGC GTC G (SEQ ID NO: 48). As to the kind of experiment: UV melting, single triazole linkage, DNA target (Table 8).
Series [7] relates to RNA target: 5′-rGCU GCA AGC GUC G (SEQ ID NO: 49). Briefly: UV melting, single triazole linkage, RNA target (Table 8).
Series [8] concerns DNA target; 5′-dGCT AGA GAA GTC G (SEQ ID NO: 52). As to the kind of experiment: UV melting, two triazole linkages, DNA target (Table 9). The note with it: two MeC-T steps. On the procedure:
as §1
(§2) Next, oligonucleotides incorporating two triazole inter-nucleotide linkage steps were prepared by templated CuAAC click ligation reactions in the presence of a complementary splint. The ligated oligonucleotides were purified by denaturating 20% polyacrylamide gel electrophoresis and were evaluated for their binding affinity for complementary DNA/RNA strands (Table 9). […] When compared to unmodified ON7, a drop of only 0.8° C./modification was observed (ON8, RNA target). […] Since the improvement in binding affinity is specific for DNA:RNA hybrids, triazole-linked LNA could find use in selective probes for RNA targeting.

Series [9] deals with RNA target; 5′-rGCU AGA GAA GUC G (SEQ ID NO: 18). As to the kind of experiment: UV melting, two triazole linkages, RNA target (Table 9). The note with it: for TM RNA TARGET: two MeC-T steps. As for the experimental part: as §1, §2
Where [10] appears, read: fully matched RNA target (M = A).
Where [11] appears, read: mismatch M = C, relative to the fully matched duplex (M = A).
The mark [12] stands for this setting: mismatch M = G, relative to the fully matched duplex (M = A).
Setting [13] is: mismatch M = U, relative to the fully matched duplex (M = A).
[14] abbreviates: 10 mM phosphate, 200 mM NaCl, pH 7.0, 3.0 μM each strand.
[15] abbreviates: relative to the unmodified duplex (ON1).

With “5′-CTC ACT ATC TG^MeCT (DNA dCdTdCdAdCdTdAdTdCdTdGd[5mC]dT) [ON100, reference compound]”, the TM M = A in series [1] (setting [10]) came out at 54.8 °C. Further, the “ΔTM U” value in [1] (mismatch RNA target M = U, change in Tm relative to the fully matched duplex (M = A)) is reported as -11.3.

In the case of “5′-d CGACG^MeCp^MeCTGCAGC (DNA dCdGdAdCdGd[5mC]d[5mC]dTdGdCdAdGdC) [ON33, reference compound]”, the Tm DNA target in series [2] is 68.7 °C. Also, the Tm RNA target in [3] was 69.1 °C.

For “5′-d CGACG^MeCp^MeC^LTGCAGC (DNA dCdGdAdCdGd[5mC]l[5mC]dTdGdCdAdGdC) [ON34, reference compound]”, in series [2], the “ΔTm DNA target” value is recorded as “+3.3” and the Tm DNA target was determined as 72 °C. Also, in series [3], the “ΔTm RNA target” value was “+5.6” and the Tm RNA target was determined as 74.7 °C.

For “5′-d CGACG^MeCt^MeCTGCAGC (DNA dCdGdAdCdGd[5mC][tz]d[5mC]dTdGdCdAdGdC) [ON12]”, in series [2], the “ΔTm DNA target” value is recorded as -6.4 and the Tm DNA target stood at 62 °C. Besides, in [3], the “ΔTm RNA target” value was -5.8 and the Tm RNA target came to 63.4 °C.

On to “5′-dCGACG^MeCt^MeC^LTGCAGC (DNA dCdGdAdCdGd[5mC][tz]l[5mC]dTdGdCdAdGdC) [ON11]”, for which, in series [2], the “ΔTm DNA target” value was -5.1 and the Tm DNA target came to 63.5 °C. For the same substance, in series [3], the “ΔTm RNA target” value is -0.5 and the Tm RNA target came to 68.6 °C.

“5′-dCGA^MeCp^MeCTCT^MeCp^MeCAGC (DNA dCdGdAd[5mC]d[5mC]dTdCdTd[5mC]d[5mC]dAdGdC) [ON35, reference compound]”: the Tm DNA target in series [4] is 66.6 °C.

In the case of “5′-dCGA^MeCp^MeC^LTCT^MeCp^MeC^LAGC [ON36, reference compound]”, in [4], the Tm DNA target came to 72.2 °C and the “ΔTm/mod DNA target” value is listed as “+2.8”.

As for 5′-dCGA^MeCt^MeCTCT^MeCt^MeCAGC [ON14], in series [4], the Tm DNA target worked out at 51.9 °C and the “ΔTm/mod DNA target” value was -7.3.

“5′-dCGA^MeCt^MeC^LTCT^MeCt^MeC^LAGC [ON13]”: in series [4], the Tm DNA target was 56.4 °C and the “ΔTm/mod DNA target” value was -5.1.

Turning to “CGACG^MeCTTGCAGC (dCdGdAdCdGd[5mC]dTdTdGdCdAdGdC) [ON1, unmodified 13-mer, reference compound]”, the TM M = A in series [5] (setting [10]) amounted to 62.8 °C. Also, the “ΔTM C” value in series [5] (setting [11]) is reported as -16.3. For the same substance, the “ΔTM G” value in series [5] (setting [12]) is -3.9. Besides, in series [5] (setting [13]), the “ΔTM U” value is -13.7. In series [6] (setting [14]), the “TM DNA TARGET” value is 64.2 °C. The “TM RNA TARGET” value in [7] (setting [14]) is 62.8 °C.

With “CGACG^MeCT^LTGCAGC (DNA dCdGdAdCdGd[5mC]lTdTdGdCdAdGdC) [ON4, reference compound]”, in series [5], the TM M = A was 68.9 °C, the “ΔTM C” value was -15.2, the “ΔTM G” value is -4.8 and the “ΔTM U” value is -13.7. The substance further had a ΔTM DNA TARGET in series [6] of 3.3 °C. In [6] (pH 7), this substance yielded a TM DNA TARGET of 67.5 °C. The ΔTM RNA TARGET in series [7] worked out at 6.1 °C. This substance also showed a TM RNA TARGET in [7] (pH 7) of 68.9 °C.

Regarding “CGACG^MeC^LtTTGCAGC (dCdGdAdCdGl[5mC][tz]dTdTdGdCdAdGdC) [ON5, LNA on the 5′-side of the triazole]”, in series [6] (setting [14]), the “TM DNA TARGET” value was 52.7 °C. Further, the “ΔTM DNA TARGET” value in [6] (setting [15]) was -11.5 °C. Moreover, in series [7] (setting [14]), the “TM RNA TARGET” value came to 55.5 °C. Besides, in series [7] (DNA:RNA hybrids or DNA duplexes (Table 8)), the “additional stabilising effect of LNA on the 5′-side of the triazole” value is “no significant additional stabilising effect”. Also, in series [7] (setting [15]), the “ΔTM RNA TARGET” value was -7.2 °C.

Take “CGACG^MeC^LtT^LTGCAGC (DNA dCdGdAdCdGl[5mC][tz]lTdTdGdCdAdGdC) [ON6]”: the “ΔTM DNA TARGET” value in [6] was -5.8. Moreover, in series [6] (pH 7), the TM DNA TARGET amounted to 58.4 °C. For the same substance, in [7], the “additional stabilising effect of LNA on the 5′-side of the triazole” value is given as “no significant additional stabilising effect” and the “ΔTM RNA TARGET” value is given as “+0.1”. For the same substance, in series [7] (pH 7), the TM RNA TARGET is 62.9 °C.

Substance CGACG^MeCtTTGCAGC [ON3] returned a TM M = A in [5] (setting [10]) of 56.6 °C. In addition, in [5] (setting [11]), the “ΔTM C” value is -16.1. For the same substance, the “ΔTM G” value in series [5] (setting [12]) is reported as -2.2. For the same substance, in series [5] (setting [13]), the “ΔTM U” value is listed as -12.9. Further, the “TM DNA TARGET” value in [6] (setting [14]) turned out to be 55.3 °C. For the same substance, in series [6] (setting [15]), the “ΔTM DNA TARGET” value is -8.9 °C. The “TM RNA TARGET” value in series [7] (setting [14]) was 56.6 °C. In addition, the “ΔTM RNA TARGET” value in series [7] (setting [15]) was -6.2 °C.

In the case of “CGACG^MeCtT^LTGCAGC (DNA dCdGdAdCdGd[5mC][tz]lTdTdGdCdAdGdC) [ON2]”, in series [5], the TM M = A was 62 °C, the “ΔTM C” value is reported as -15.6, the “ΔTM G” value was -3.3 and the “ΔTM U” value is reported as -13.4. In [6], the “increase in thermal stability compared to the duplex containing only the triazole linkage” value was 2.9 and the “ΔTM DNA TARGET” value was −6.0. The TM DNA TARGET in series [6] (pH 7) was determined as 58.2 °C. Also, in [7], the “increase in Tm relative to the duplex with only the triazole linkage” value was found to be 5.4 and the “ΔTM RNA TARGET” value is on record as −0.8. In [7] (pH 7), this substance showed a TM RNA TARGET of 62 °C.

Consider “CGA^MeCTTCT^MeCTAGC (dCdGdAd[5mC]dTdTdCdTd[5mC]dTdAdGdC) [ON7, unmodified 13-mer, reference compound]”, for which, in series [8], the “TM DNA TARGET” value amounted to 57.1 °C. Further, the “TM RNA TARGET” value in series [9] came to 58.8 °C.

For the substance “CGA^MeCT^LTCT^MeCT^LAGC (dCdGdAd[5mC]lTdTdCdTd[5mC]lTdAdGdC) [ON10, two LNA, no triazole, reference compound]”, the “TM DNA TARGET” value in series [8] is 62.2 °C. Moreover, the “TM RNA TARGET” value in [9] came to 70.0 °C.

CGA^MeCtTTCT^MeCtTAGC [ON9]: in series [8], the “TM DNA TARGET” value is 42.3 °C. For the same substance, the “TM RNA TARGET” value in series [9] was 47.1 °C.

Consider CGA^MeCtT^LTCT^MeCtT^LAGC [ON8], for which the “TM DNA TARGET” value in [8] is 48.0 °C. For the same substance, in [9] (RNA target), the “drop in Tm compared to unmodified ON7” value worked out at 0.8 °C/modification. Moreover, the “increase in Tm relative to oligonucleotides with two triazole linkages without 3′-LNA” value in series [9] (RNA target, compare ON8 and ON9) was found to be 5.0 °C/modification. In addition, the “TM RNA TARGET” value in series [9] stood at 57.1 °C.
